Reference: the supplement of paper PMC10307832

How the values were obtained:
Assay in all cases: relative viability (nuclei count vs DMSO), 5 days (fraction); higher = more cells survive
[1] = compound: CN1C=C(C2=CC=CC=C21)/C=C\3/C4=C(C=CC=N4)NC3=O + CC(=O)c1c(C)c2cnc(Nc3ccc(N4CCNCC4)cn3)nc2n(C2CCCC2)c1=O [Palbociclib] (partner 0.5 µM)
How it was run: (§1)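 Lung cancer cell lines were seeded in 1536-well plates and dosed by pin tool the next day, with either a single drug or a fixed anchor-drug dose combined with five library-drug doses (not always all listed) spaced in √10 steps. Five days later, one step fixed the cells and stained their nuclei (final 0.05% Triton X-100, 1% formaldehyde, 1 ug/ml Hoechst), and nuclei were counted on 4× images. Relative viability is the nuclei count in treated wells divided by the count in vehicle wells, and each value is the median of duplicate plates.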

Trametinib + Phenformin = compound: CC(=O)Nc1cccc(-n2c(=O)n(C3CC3)c(=O)c3c(Nc4ccc(I)cc4F)n(C)c(=O)c(C)c32)c1 [Trametinib] + N=C(N)NC(=N)NCCc1ccccc1 [Phenformin] (partner 250 µM)
How it was run: as §1

Trametinib + Vorinostat = compound: CC(=O)Nc1cccc(-n2c(=O)n(C3CC3)c(=O)c3c(Nc4ccc(I)cc4F)n(C)c(=O)c(C)c32)c1 [Trametinib] + O=C(CCCCCCC(=O)Nc1ccccc1)NO [Vorinostat] (partner 1 µM)
How it was run: as §1

[2] = compound: CN1C=C(C2=CC=CC=C21)/C=C\3/C4=C(C=CC=N4)NC3=O + Cc1nc(NC(=O)N2CCC[C@H]2C(N)=O)sc1-c1ccnc(C(C)(C)C(F)(F)F)c1 [Alpelisib] (partner 2 µM)
How it was run: as §1

Cell Line | relative viability ([1]; first compound 0.02 µM) | relative viability ([1]; first compound 0.06325 µM) | relative viability ([1]; first compound 0.2 µM) | relative viability ([1]; first compound 0.6325 µM) | relative viability ([1]; first compound 2 µM) | relative viability (Trametinib + Phenformin; first compound 0.0025 µM) | relative viability (Trametinib + Phenformin; first compound 0.007906 µM) | relative viability (Trametinib + Phenformin; first compound 0.025 µM) | relative viability (Trametinib + Phenformin; first compound 0.07906 µM) | relative viability (Trametinib + Phenformin; first compound 0.25 µM) | relative viability (Trametinib + Vorinostat; first compound 0.0025 µM) | relative viability (Trametinib + Vorinostat; first compound 0.007906 µM) | relative viability (Trametinib + Vorinostat; first compound 0.025 µM) | relative viability (Trametinib + Vorinostat; first compound 0.07906 µM) | relative viability (Trametinib + Vorinostat; first compound 0.25 µM) | relative viability ([2]; first compound 0.02 µM) | relative viability ([2]; first compound 0.06325 µM) | relative viability ([2]; first compound 0.2 µM) | relative viability ([2]; first compound 0.6325 µM) | relative viability ([2]; first compound 2 µM)
BEN | 0.453 | 0.409 | 0.465 | 0.48 | 0.49 | 0.264 | 0.258 | 0.247 | 0.278 | 0.275 | 0.62 | 0.57 | 0.49 | 0.57 | 0.624 | 1.05 | 0.932 | 0.981 | 1 | 1.13
NCI-H2347 | 0.418 | 0.41 | 0.398 | 0.395 | 0.416 | 0.225 | 0.125 | 0.233 | 0.164 | 0.143 | 0.467 | 0.358 | 0.289 | 0.329 | 0.358 | 1.09 | 0.972 | 1.02 | 0.89 | 1.1
LCLC-103H | 0.493 | 0.411 | 0.479 | 0.471 | 0.472 | 0.319 | 0.349 | 0.318 | 0.269 | 0.307 | 0.808 | 0.636 | 0.699 | 0.631 | 0.588 | 1.05 | 1.02 | 0.937 | 0.941 | 0.924
NCI-H650 | 0.385 | 0.341 |  | 0.356 | 0.391 | 0.532 | 0.52 | 0.501 | 0.426 | 0.403 | 0.528 | 0.585 | 0.392 | 0.569 | 0.667 | 1.07 | 1.12 |  | 1.24 | 1.09
NCI-H1975 | 0.623 | 0.361 | 0.45 | 0.442 | 0.504 | 0.386 | 0.308 | 0.291 | 0.234 | 0.124 | 0.643 | 0.542 | 0.48 | 0.456 | 0.351 | 0.603 | 0.718 | 0.536 | 0.625 | 0.498
NCI-H2126 | 0.325 | 0.31 | 0.348 | 0.319 | 0.326 | 0.501 | 0.464 | 0.419 | 0.481 | 0.466 | 0.701 | 0.514 | 0.353 | 0.6 | 0.446 | 0.794 | 0.775 | 0.741 | 0.716 | 0.6
NCI-H2087 | 0.243 | 0.178 | 0.229 | 0.199 | 0.237 | 0.294 | 0.258 | 0.146 | 0.153 | 0.111 | 0.595 | 0.368 | 0.463 | 0.237 | 0.12 | 1.16 | 1.21 | 1.17 | 1.05 | 1.22
